Where a name gives a salt, the structure may show the parent alone.
How the values were obtained:
morphine-dependent rats = assay: Naloxone-promoted abstinence experiment in morphine-dependent rats (symptom scores and body weight decrease); type: in vivo, Wistar rat
[1] = tested on: subjects addicted to heroin for over 10 years; assay: Clinical trial (typical case): subjects addicted to heroin for over 10 years, asafetida injection intravenously; type: in vivo, human; conditions: 25 cases per group, heroin over 10 years, phenoxyimidazoline hydrochloride 0.1 mg tablet, thrice per day
[2] = tested on: subjects addicted to drugs; assay: Clinical trial: abstinence treatment of subjects addicted to drugs, asafetida injection intramuscularly; type: in vivo, human; conditions: 20 cases per group, thrice per day, phenoxyimidazoline hydrochloride 0.1 mg tablet
Text: The typical performance of abstinence syndrome was as follows: yawning, lacrimation, perspiring, bad mood, anxiety, and dysphoria.
Apparently effective: the abstinence syndrome disappears completely and performance is normal.
Effective: the abstinence syndrome is obviously abated.
Ineffective: the abstinence syndrome has no obvious remission or no remission at all.
The subjects addicted to drugs were randomly grouped into asafetida injection treatment group, phenoxyimidazoline hydrochloride positive control group, placebo negative control group, wherein the phenoxyimidazoline hydrochloride is a relatively effective medicine for abstinence of drugs at present. The pharmaceuticals and usage thereof in each group were as follows:
Asafetida injection, 2 ml (equivalent to 1 g of original crude material)/bottle, thrice per day, a bottle per time, injected intramuscularly, for three consecutive days.
Phenoxyimidazoline hydrochloride, 0.1 mg/tablet, thrice per day, a tablet per time, for three consecutive days.
Placebo (physiological saline), 2 ml/bottle, thrice per day, a bottle per time, injected intramuscularly, for three consecutive days.

[3] = clonidine 0.1 mg/kg perfused, X ± S, n=10
[4] = asafetida 5 ml i.v., three days
[5] = three days, asafetida 2 ml i.m.

## Clc1cccc(Cl)c1N=C1NCCN1 [clonidine, phenoxyimidazoline hydrochloride]
morphine-dependent rats; clonidine 0.1 mg/kg perfused once a day, three times, 15 min after naloxone 4 mg/kg i.p., mean ± SD, n=10
  Scores of performance and autonomic nervous system symptoms of rats after naloxone administration: 2.22 ± 2.29
morphine-dependent rats; clonidine 0.1 mg/kg perfused, 30 min after naloxone
  Scores of performance and autonomic nervous system symptoms of rats after naloxone administration: 2.68 ± 1.81
morphine-dependent rats; clonidine 0.1 mg/kg perfused, 45 min after naloxone
  Scores of performance and autonomic nervous system symptoms of rats after naloxone administration: 1.21 ± 1.80
morphine-dependent rats; clonidine 0.1 mg/kg perfused, 60 min after naloxone
  Scores of performance and autonomic nervous system symptoms of rats after naloxone administration: 1.61 ± 1.54
morphine-dependent rats; clonidine 0.1 mg/kg perfused, 90 min after naloxone
  Scores of performance and autonomic nervous system symptoms of rats after naloxone administration: 0.40 ± 0.68
morphine-dependent rats; clonidine 0.1 mg/kg perfused, 120 min after naloxone
  Scores of performance and autonomic nervous system symptoms of rats after naloxone administration: 0 ± 0
morphine-dependent rats; [3]
  body weight decreasing at 30 min after administrating naloxone: 4.077 ± 3.431 g
  body weight decreasing at 60 min after administrating naloxone: 5.560 ± 4.960 g
[1]; [4]
  Apparently effective, %: 60.00%
  Effective, %: 40.00%
  Effective, Number of Cases: 10
  Ineffective, %: 0%
  Ineffective, Number of Cases: 0
  Total effective rate %: 100%
[1]; three consecutive days, asafetida injection 5 ml (2.5 g crude material) intravenously
  Apparently effective, Number of Cases: 15
[2]; three consecutive days, asafetida injection 2 ml (1 g crude material) intramuscularly
  Apparently effective, Number of Cases: 13
[2]; [5]
  Apparently effective, %: 65.00%
  Effective, %: 35.00%
  Effective, Number of Cases: 7
  Ineffective, %: 0%
  Ineffective, Number of Cases: 0
  Total effective rate %: 100%
